Like-named read-outs stand apart in the source and are kept apart here. Starred links: 1 amine or outer side, 2 acyl side, 3 side chain; linkers in the order of their positions; H or OH if unused. Non-standard residues stand in square brackets, D forms with d. Residues, ends and D or L forms follow the SMILES beside them. Groups on a side chain read outwards from the residue. *: point of attachment. C18 diacid = O=C(O)CCCCCCCCCCCCCCCCC(=O)*; γGlu = O=C(O)[C@H](CCC(=O)[*:2])N[*:1]; Palmitoyl = CCCCCCCCCCCCCCCC(=O)*; AEEA = NCCOCCOCC(=O)O; Aib = CC(C)(N)C(=O)O
How the values were obtained:
human CRF2α receptor = target: T1, human CRF2α receptor (Homo sapiens, UniProt Q13324); assay: cAMP agonism at human CRF2 α receptor in TeloHEAC cells (Example 7); format: cell-based; details: cAMP HTRF, TeloHEAC cells stably expressing human CRF2 α
T1 construct: expressed in transfected cells; host or cells: TeloHEAC
T1 sequence (Q13324 1-411): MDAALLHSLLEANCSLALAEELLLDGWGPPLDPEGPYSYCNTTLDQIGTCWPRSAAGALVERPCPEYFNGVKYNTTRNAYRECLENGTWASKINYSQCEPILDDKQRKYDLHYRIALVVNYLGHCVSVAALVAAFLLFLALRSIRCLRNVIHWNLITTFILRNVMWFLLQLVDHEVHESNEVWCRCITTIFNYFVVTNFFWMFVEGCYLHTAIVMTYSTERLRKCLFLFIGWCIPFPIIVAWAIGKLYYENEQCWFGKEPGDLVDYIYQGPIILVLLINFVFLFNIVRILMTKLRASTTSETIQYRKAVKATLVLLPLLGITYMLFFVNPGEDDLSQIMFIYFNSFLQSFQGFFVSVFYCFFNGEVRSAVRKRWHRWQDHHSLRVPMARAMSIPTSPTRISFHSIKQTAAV
Procedure, shortened: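 Steps: thaw and wash cells; suspend in 1×HBSS, 20 mM HEPES, 0 or 0.1% HSA, 2 mM IBMX; add compound, 30 min RT; lyse with HTRF reagents, 1 h; read 665/620 nm. EC50 calculated, E% versus 1000 nM UCN2.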

rat CRF2R α receptor = assay: cAMP agonism at rat CRF2R α receptor in A7R5 rat aortic smooth muscle cells (Example 8); format: cell-based; details: cAMP HTRF, A7R5 rat aortic smooth muscle cell line, 0% HSA
Description: Cells were grown in a T175 culture flask placed at 37° C. to near confluence in medium (DMEM/10% FBS) and collected in 2 ml vials in cell culture medium containing 10% DMSO in a concentration of 10-50 million cells/ml. Each vial contained 1.8 ml cells. The vials were slowly frozen to −80° C. in isopropanol and then transferred in liquid nitrogen for storage. Prior to use, frozen cells were thawed quickly at 37° C. and washed (5 min at 900 rpm) with 20 ml cell buffer (1×HBSS; 20 mM HEPES; 0% or 0.1% HSA). Cells were resuspended in assay buffer (cell buffer plus 2 mM IBMX) and adjusted to a cell density of 1 million cells/ml. For measurement, 5 μl cells (final […]) and 5 μL of test compound were added to a 384-well plate, followed by incubation for 30 minutes at room temperature.
The CAMP content of cells was determined using a kit from Cisbio Corp. (cat. no. 62AM4PEC) based on HTRF (Homogenous Time Resolved Fluorescence). After addition of HTRF reagents diluted in lysis buffer (kit components), the plates were incubated for 1 h, followed by measurement of the fluorescence ratio at 665/620 nm. The percent activity value (E %) was calculated by setting 1000 nM of urocortin 2 (UCN2) as 100%. The in vitro potency of the compounds was quantified by determining the concentrations that caused 50% activation of maximal response (EC50).
Using the procedure described in Example 7, the activity of the compounds at the rat CRF2R α receptor was assessed. The A7R5 rat aortic smooth muscle cell line was used in this study.

[1] = 0% HSA, read-out: EC50 [nM], 0% HSA
[2] = 0.1% HSA, read-out: EC50 [nM], 0.1% HSA

With CC[C@H](C)[C@H](N)C(=O)N[C@H](C(=O)N[C@@H](CC(C)C)C(=O)N[C@@H](CO)C(=O)N[C@@H](CC(C)C)C(=O)N[C@@H](CC(=O)O)C(=O)N[C@H](C(=O)N1CCC[C@H]1C(=O)N[C@H](C(=O)N[C@@H](CCCCN)C(=O)N[C@@H](CC(C)C)C(=O)N[C@@H](CCCCNC(=O)COCCOCCNC(=O)COCCOCCNC(=O)CC[C@H](NC(=O)CCCCCCCCCCCCCCCCC(=O)O)C(=O)O)C(=O)N[C@@H](CCC(N)=O)C(=O)N[C@H](C(=O)N[C@@H](CC(C)C)C(=O)N[C@@H](CC(C)C)C(=O)N[C@@H](CCC(=O)O)C(=O)N[C@@H](CCC(N)=O)C(=O)N[C@@H](C)C(=O)N[C@@H](CCCCN)C(=O)N[C@@H](CCC(N)=O)C(=O)N[C@@H](CCCCN)C(=O)NC(C)(C)C(=O)N[C@@H](CC(C)C)C(=O)N[C@@H](CCCCN)C(=O)N[C@@H](C)C(=O)N[C@@H](CCC(N)=O)C(=O)N[C@@H](C)C(=O)N[C@@H](CCC(=O)O)C(=O)N[C@H](C(=O)N[C@@H](CC(N)=O)C(=O)N[C@H](C(=O)N[C@@H](CCCNC(=N)N)C(=O)N[C@H](C(=O)N[C@@H](CC(C)C)C(=O)N[C@@H](CCC(=O)O)C(=O)N[C@@H](CCCNC(=N)N)C(=O)N[C@H](C(N)=O)C(C)C)[C@@H](C)CC)C(C)C)[C@@H](C)O)[C@@H](C)CC)[C@@H](C)CC)C(C)C)C(C)C [compound 45] (H-IVLSLDVPIKLK([AEEA-AEEA-γGlu-C18 diacid])QILLEQAKQK[Aib]LKAQAETNVRILERV-NH2) the EC50 (human CRF2α receptor; [1]) was 3.77 nM and the EC50 (rat CRF2R α receptor) was 47.3 nM.
In the case of CC[C@H](C)[C@H](NC(C)=O)C(=O)N[C@H](C(=O)N[C@@H](CC(C)C)C(=O)N[C@@H](CO)C(=O)N[C@@H](CC(C)C)C(=O)N[C@@H](CC(=O)O)C(=O)N[C@@H](C(=O)N1CCC[C@H]1C(=O)N[C@H](C(=O)N[C@@H](CCCCN)C(=O)N[C@@H](CC(C)C)C(=O)N[C@@H](CCCCNC(=O)COCCOCCNC(=O)COCCOCCNC(=O)CC[C@H](NC(=O)CCCCCCCCCCCCCCCCC(=O)O)C(=O)O)C(=O)N[C@@H](CCC(N)=O)C(=O)N[C@H](C(=O)N[C@@H](CC(C)C)C(=O)N[C@@H](CC(C)C)C(=O)N[C@@H](CCC(=O)O)C(=O)N[C@@H](CCC(N)=O)C(=O)N[C@@H](C)C(=O)N[C@@H](CCCNC(=N)N)C(=O)N[C@@H](CCC(N)=O)C(=O)N[C@@H](CCCCN)C(=O)NC(C)(C)C(=O)N[C@@H](CCC(N)=O)C(=O)N[C@@H](CCCNC(=N)N)C(=O)N[C@@H](CCC(=O)O)C(=O)N[C@@H](CCC(N)=O)C(=O)N[C@@H](C)C(=O)N[C@@H](CCC(=O)O)C(=O)N[C@@H](CCCCN)C(=O)N[C@@H](CC(N)=O)C(=O)N[C@@H](CCCCN)C(=O)N[C@@H](CCC(N)=O)C(=O)N[C@H](C(=O)N[C@@H](CC(C)C)C(=O)N[C@@H](CCC(=O)O)C(=O)N[C@@H](CCC(N)=O)C(=O)N[C@H](C(N)=O)C(C)C)[C@@H](C)CC)[C@@H](C)CC)[C@@H](C)CC)C(C)C)C(C)C [compound 157] (Ac-IVLSLD[dV]PIKLK([AEEA-AEEA-γGlu-C18 diacid])QILLEQARQK[Aib]QREQAEKNKQILEQV-NH2), the EC50 (human CRF2α receptor; [1]) is reported as 0.12 nM, the EC50 (human CRF2α receptor; [2]) is reported as 2.53 nM and the EC50 (rat CRF2R α receptor) is reported as 1.14 nM.
CC[C@H](C)[C@H](NC(C)=O)C(=O)N[C@H](C(=O)N[C@@H](CC(C)C)C(=O)N[C@@H](CO)C(=O)N[C@@H](CC(C)C)C(=O)N[C@@H](CC(=O)O)C(=O)N[C@@H](C(=O)N1CCC[C@H]1C(=O)N[C@H](C(=O)N[C@@H](CCCCN)C(=O)N[C@@H](CC(C)C)C(=O)N[C@@H](CCCCNC(=O)COCCOCCNC(=O)COCCOCCNC(=O)CC[C@H](NC(=O)CCCCCCCCCCCCCCCCC(=O)O)C(=O)O)C(=O)N[C@@H](CCC(N)=O)C(=O)N[C@H](C(=O)N[C@@H](CC(C)C)C(=O)N[C@@H](CC(C)C)C(=O)N[C@@H](CCC(=O)O)C(=O)N[C@@H](CCC(N)=O)C(=O)N[C@@H](CCC(=O)O)C(=O)N[C@@H](CCCNC(=N)N)C(=O)N[C@@H](CCC(N)=O)C(=O)N[C@@H](CCCCN)C(=O)NC(C)(C)C(=O)N[C@@H](CCC(N)=O)C(=O)N[C@@H](CCCNC(=N)N)C(=O)N[C@@H](CCC(=O)O)C(=O)N[C@@H](CCC(N)=O)C(=O)N[C@@H](C)C(=O)N[C@@H](CCC(=O)O)C(=O)N[C@@H](CCCCN)C(=O)N[C@@H](CC(N)=O)C(=O)N[C@@H](CCCCN)C(=O)N[C@@H](CCC(N)=O)C(=O)N[C@H](C(=O)N[C@@H](CC(C)C)C(=O)N[C@@H](CCC(=O)O)C(=O)N[C@@H](CCC(N)=O)C(=O)N[C@H](C(N)=O)C(C)C)[C@@H](C)CC)[C@@H](C)CC)[C@@H](C)CC)C(C)C)C(C)C [compound 158] (Ac-IVLSLD[dV]PIKLK([AEEA-AEEA-γGlu-C18 diacid])QILLEQERQK[Aib]QREQAEKNKQILEQV-NH2) showed an EC50 (human CRF2α receptor; [1]) of 0.42 nM, an EC50 (human CRF2α receptor; [2]) of 5.63 nM and an EC50 (rat CRF2R α receptor) of 5.29 nM.
CC[C@H](C)[C@H](NC(C)=O)C(=O)N[C@H](C(=O)N[C@@H](CC(C)C)C(=O)N[C@@H](CO)C(=O)N[C@@H](CC(C)C)C(=O)N[C@@H](CC(=O)O)C(=O)N[C@@H](C(=O)N1CCC[C@H]1C(=O)N[C@H](C(=O)N[C@@H](CCCCN)C(=O)N[C@@H](CC(C)C)C(=O)N[C@@H](CCCCNC(=O)COCCOCCNC(=O)COCCOCCNC(=O)CC[C@H](NC(=O)CCCCCCCCCCCCCCCCC(=O)O)C(=O)O)C(=O)N[C@@H](CCC(N)=O)C(=O)N[C@H](C(=O)N[C@@H](CC(C)C)C(=O)N[C@@H](CC(C)C)C(=O)N[C@@H](CCC(=O)O)C(=O)N[C@@H](CCC(N)=O)C(=O)N[C@@H](CCC(=O)O)C(=O)N[C@@H](CCCNC(=N)N)C(=O)N[C@@H](CCC(N)=O)C(=O)N[C@@H](CCC(=O)O)C(=O)NC(C)(C)C(=O)N[C@@H](CCC(N)=O)C(=O)N[C@@H](CCCNC(=N)N)C(=O)N[C@@H](CCC(=O)O)C(=O)N[C@@H](CCC(N)=O)C(=O)N[C@@H](C)C(=O)N[C@@H](CCC(=O)O)C(=O)N[C@@H](CCCCN)C(=O)N[C@@H](CC(N)=O)C(=O)N[C@@H](CCCCN)C(=O)N[C@@H](CCC(N)=O)C(=O)N[C@H](C(=O)N[C@@H](CC(C)C)C(=O)N[C@@H](CCC(=O)O)C(=O)N[C@@H](CCC(N)=O)C(=O)N[C@H](C(N)=O)C(C)C)[C@@H](C)CC)[C@@H](C)CC)[C@@H](C)CC)C(C)C)C(C)C [compound 159] (Ac-IVLSLD[dV]PIKLK([AEEA-AEEA-γGlu-C18 diacid])QILLEQERQE[Aib]QREQAEKNKQILEQV-NH2) gave an EC50 (human CRF2α receptor; [1]) of 1.27 nM, an EC50 (human CRF2α receptor; [2]) of 27.4 nM and an EC50 (rat CRF2R α receptor) of 15.6 nM.
CCCCCCCCCCCCCCCC(=O)N[C@@H](CCC(=O)NCCCC[C@H](NC(=O)[C@H](CC(C)C)NC(=O)[C@H](CCCCN)NC(=O)[C@@H](NC(=O)[C@@H]1CCCN1C(=O)[C@H](NC(=O)[C@H](CC(=O)O)NC(=O)[C@H](CC(C)C)NC(=O)[C@H](CO)NC(=O)[C@H](CC(C)C)NC(=O)[C@@H](NC(=O)[C@@H](N)[C@@H](C)CC)C(C)C)C(C)C)[C@@H](C)CC)C(=O)N[C@@H](CCC(N)=O)C(=O)N[C@@H](CCCCN)C(=O)N[C@@H](CC(C)C)C(=O)N[C@@H](CC(C)C)C(=O)N[C@@H](CCCCN)C(=O)N[C@@H](CCC(N)=O)C(=O)N[C@@H](CCC(N)=O)C(=O)N[C@@H](CCCNC(=N)N)C(=O)N[C@@H](CCC(N)=O)C(=O)N[C@@H](CCCNC(=N)N)C(=O)N[C@@H](CCCCN)C(=O)N[C@@H](CCC(=O)O)C(=O)N[C@@H](CCCNC(=N)N)C(=O)N[C@@H](CCC(N)=O)C(=O)N[C@@H](CCC(N)=O)C(=O)N[C@@H](C)C(=O)N[C@@H](CCC(=O)O)C(=O)N[C@@H](CCCCN)C(=O)N[C@@H](CC(N)=O)C(=O)N[C@@H](CCCCN)C(=O)N[C@@H](CCCNC(=N)N)C(=O)N[C@H](C(=O)N[C@@H](CC(C)C)C(=O)N[C@@H](CCC(=O)O)C(=O)N[C@@H](CCCNC(=N)N)C(=O)N[C@H](C(N)=O)C(C)C)[C@@H](C)CC)C(=O)O [compound 227] (H-IVLSLD[dV]PIKLK([γGlu-Palmitoyl])QKLLKQQRQRKERQQAEKNKRILERV-NH2) showed an EC50 (rat CRF2R α receptor) of 0.61 nM.

Source: patent publication US12679878B2, “CRF2 receptor agonists and their use in therapy” (SANOFI, priority 2020, dated 2026)
